These results are taken from ChEMBL document CHEMBL1158204, “Metabolites from an Antarctic sponge-associated bacterium, Pseudomonas aeruginosa” (1996).

Active and inactive are the calls of the source. The rule behind the calls is not given here.

Type in all cases: functional
Holding throughout (details): for MIC: 48 h

One assay concerns Staphylococcus aureus. Nature of the assay: Antibacterial activity against Staphylococcus aureus after 2 days by disk assay.
For the next assay, the system named is Bacillus cereus. Nature of the assay: Antibacterial activity against Bacillus cereus after 2 days by disk assay.
The subject of the next assay is Micrococcus luteus. As to the kind of experiment: Antibacterial activity against Micrococcus luteus after 2 days by disk assay.

As to `O=C(O)c1cccc2nc3ccccc3nc12` [PHENAZINE-1-CARBOXYLIC ACID], the minimal inhibitory concentration (MIC) with Staphylococcus aureus was less than 5 µg/mL; against Bacillus cereus it was less than 0.5 µg/mL; in the assay on Micrococcus luteus, less than 5 µg/mL.

In the case of `CC(C)C[C@@H]1NC(=O)[C@@H]2CCCN2C1=O`, the outcome in the assay with Staphylococcus aureus, in the assay with Bacillus cereus and in the assay with Micrococcus luteus was inactive.

For `O=C1N[C@@H](Cc2ccc(O)cc2)C(=O)N2CCC[C@@H]12`, the outcome with Staphylococcus aureus, with Bacillus cereus and with Micrococcus luteus was inactive.

With `CSCC[C@@H]1NC(=O)[C@@H]2CCCN2C1=O`, the result in the assay with Staphylococcus aureus, in the assay on Bacillus cereus and with Micrococcus luteus was inactive.

In the case of `CC(C)[C@@H]1NC(=O)[C@@H]2CCCN2C1=O`, the result in the assay on Staphylococcus aureus, with Bacillus cereus and with Micrococcus luteus was inactive.

As to `O=C1N[C@@H](Cc2ccccc2)C(=O)N2CCC[C@@H]12`, the outcome in the assay on Staphylococcus aureus, in the assay on Bacillus cereus and in the assay on Micrococcus luteus was inactive.

For `NC(=O)c1cccc2nc3ccccc3nc12`, the MIC in the assay with Staphylococcus aureus is less than 5 µg/mL; in the assay with Bacillus cereus, less than 0.5 µg/mL; with Micrococcus luteus it was less than 5 µg/mL.

Take `CC[C@H](C)[C@@H]1NC(=O)[C@@H]2CCCN2C1=O`: the result in the assay on Staphylococcus aureus, with Bacillus cereus and in the assay with Micrococcus luteus was inactive.
